Source: patent US8258114B2, “Modulation of glucose-6-phosphatase translocase expression” (Isis Pharmaceuticals, Inc., priority 2004, dated 2012)
Oligonucleotides are written 5' to 3', each unit as a sugar letter and its base; * is a phosphorothioate linkage, no mark a phosphodiester; rarer units and linkages stand in square brackets, end groups in braces. Plain capitals give the bases only. e = 2'-O-(2-methoxyethyl) (MOE); [5mC] = 5-methylcytosine; d = 2'-deoxy (DNA)

Experiments:
[1] = Body weight and tissue weights of normal Sprague-Dawley rats (Table 13); conditions: for Spleen weight / Fat weight / Kidney weight / Liver weight: end of study; for Increases in body weights (in words): 12.5 to 50 mg/kg, throughout the study
Method: For three weeks, male Sprague-Dawley rats were injected twice-weekly with doses of 12.5 mg/kg, 25 mg/kg, or 50 mg/kg of ISIS 145760, ISIS 359543, or ISIS 366228. Each treatment group was comprised of 4 animals. Animals which received twice weekly injections of saline served as controls.
Body weight was monitored throughout the study period. […] Tissue weights were also measured at the end of the study.

[2] = system: glucose-6-phosphatase translocase mRNA; test: Target reduction in liver: rat dose-response study (Table 12); assay type: in vivo; conditions: Sprague-Dawley rats; for % Inhibition, target reduction in liver: three weeks; for target mRNA levels in rat liver (in words): 12.5 to 50 mg/kg
Method: (§1) Each treatment group was comprised of 4 animals.
At the end of the treatment period, animals were sacrificed and target reduction in liver was measured by real-time PCR as described in other examples herein. Results are shown in Table 12 as the average percent reduction in glucose-6-phosphatase translocase levels as compared to saline treated control.

[3] = Plasma glucose, cholesterol and triglycerides in normal Sprague-Dawley rats (Table 14); assay type: in vivo, rat; set-up: plasma GLUCOSE WK 0 / plasma GLUCOSE WK 3: unit not given beside the values; conditions: for plasma triglycerides (in words): 12.5 to 50 mg/kg, three weeks
Method: as §1
To further assess the physiological effects resulting from inhibition of target mRNA, the rats were evaluated at the beginning (Wk 0) and at the end (Wk 3) of the treatment period for plasma glucose, plasma cholesterol, and plasma triglyceride levels. Triglycerides and cholesterol were measured by routine clinical analyzer instruments (e.g. Olympus Clinical Analyzer, Melville, N.Y.). Glucose levels were measured using a glucose analyzer, for example a YSI glucose analyzer (YSI Scientific, Yellow Springs, Ohio). Results are presented in Table 14 as the average level of plasma glucose, plasma cholesterol (CHOL), or plasma triglycerides (TRIG) measured per treatment group.

[4] = system: human glucose-6-phosphatase translocase mRNA; test: Antisense inhibition of human glucose-6-phosphatase translocase mRNA in HepG2 cells (Table 11); assay type: cell-based; set-up: concentration or dose not given beside the values; conditions: LIPOFECTIN, mRNA by real-time PCR
Method in brief: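 HepG2 cells at 65-75% confluency transfected with 2′-MOE gapmer oligonucleotides using LIPOFECTIN (2.5 or 3 μg/mL per 100 nM oligo) for 4-7 h and harvested 16-24 h later. Target mRNA measured by RT real-time PCR and normalized to GAPDH or RiboGreen total RNA.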

[5] = system: mouse glucose-6-phosphatase translocase mRNA; test: Antisense inhibition of mouse glucose-6-phosphatase translocase mRNA in primary mouse hepatocytes, 150 nM, LIPOFECTIN (Table 22); assay type: cell-based; conditions: real-time PCR
Method in brief: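 Primary CD-1 mouse hepatocytes at 65-75% confluency transfected ~4-7 h at 37° C with 150 nM 5-10-5 2′-MOE gapmer phosphorothioate oligonucleotides plus LIPOFECTIN (2.5 or 3 μg/mL per 100 nM). Harvested 16-24 h post-treatment; mRNA by real-time RT-PCR, normalized to GAPDH or RiboGreen total RNA, expressed as percent inhibition.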

[6] = system: human glucose-6-phosphatase translocase mRNA; test: Antisense inhibition of human glucose-6-phosphatase translocase mRNA in T-24 cells, real-time PCR (Table 4); assay type: cell-based; conditions: 100 nM oligonucleotide, LIPOFECTIN, mRNA by real-time PCR
Method: The transitional cell bladder carcinoma cell line T-24 was obtained from the American Type Culture Collection (ATCC) (Manassas, Va.). T-24 cells were routinely cultured in complete McCoy's 5A basal media (Invitrogen Life Technologies, Carlsbad, Calif.) supplemented with 10% fetal bovine serum (Invitrogen Life Technologies, Carlsbad, Calif.). Cells were routinely passaged by trypsinization and dilution when they reached approximately 90% confluence. Cells were seeded into 96-well plates (Falcon-Primaria #3872) at a density of approximately 4000-6000 cells/well for use in oligomeric compound transfection experiments. When cells reached 65-75% confluency, they were treated with oligonucleotide. […] This transfection mixture was incubated at room temperature for approximately 0.5 hours. For cells grown in 96-well plates, wells were washed once with 100 μL OPTI-MEMTM-1 and then treated with 130 μL of the transfection mixture. Cells grown in 24-well plates or other standard tissue culture plates are treated similarly, using appropriate volumes of medium and oligonucleotide. Cells are treated and data are obtained in duplicate or triplicate. After approximately 4-7 hours of treatment at 37° C., the medium containing the transfection mixture was replaced with fresh culture medium. Cells were harvested 16-24 hours after oligonucleotide treatment. […] Prior to quantitative PCR analysis, primer-probe sets specific to the target gene being measured were evaluated for their ability to be “multiplexed” with a GAPDH amplification reaction. After isolation the RNA is subjected to sequential reverse transcriptase (RT) reaction and real-time PCR, both of which are performed in the same well. RT and PCR reagents were obtained from Invitrogen Life Technologies (Carlsbad, Calif.). […] The RT reaction was carried out by incubation for 30 minutes at 48° C. Following a 10 minute incubation at 95° C. to activate the PLATINUM® Taq, 40 cycles of a two-step PCR protocol were carried out: 95° C. for 15 seconds (denaturation) followed by 60° C. for 1.5 minutes (annealing/extension). Gene target quantities obtained by RT, real-time PCR were normalized using either the expression level of GAPDH, a gene whose expression is constant, or by quantifying total RNA using RiboGreenTM (Molecular Probes, Inc. Eugene, Oreg.). GAPDH expression was quantified by RT, real-time PCR, by being run simultaneously with the target, multiplexing, or separately. Total RNA was quantified using RiboGreenTM RNA quantification reagent (Molecular Probes, Inc. Eugene, Oreg.). A series of oligomeric compounds was designed to target different regions of human glucose-6-phosphatase translocase, using published sequences cited in Table 1. All compounds in Table 4 are chimeric oligonucleotides (“gapmers”) 20 nucleotides in length, composed of a central “gap” region consisting of 10 2'-deoxynucleotides, which is flanked on both sides ([NT]) by five-nucleotide “wings”. The wings are composed of 2'-O-(2-methoxyethyl) nucleotides, also known as 2'-MOE nucleotides. The internucleoside (backbone) linkages are phosphorothioate throughout the oligonucleotide. All cytidine residues are 5-methylcytidines. The compounds were analyzed for their effect on gene target mRNA levels by quantitative real-time PCR as described in other examples herein, using the following primer-probe set designed to hybridize to human glucose-6-phosphatase translocase: Forward primer: [NT] (incorporated herein as SEQ ID NO: 24) Reverse primer: [NT] (incorporated herein as SEQ ID NO: 25) And the PCR probe was: […] (incorporated herein as SEQ ID NO: 26), where FAM is the fluorescent dye and TAMRA is the quencher dye. Data are from experiments in which T-24 cells were treated with 100 nM of the antisense oligonucleotides of the present invention using LIPOFECTINTM. A reduction in expression is expressed as percent inhibition in Table 4. If present, “N.D.” indicates “not determined”. The control oligomeric compound used was SEQ ID NO: 11. […]

[7] = 12.5 mg/kg twice weekly, saline 0.7
[8] = 12.5 mg/kg twice weekly, saline 1.8
[9] = 12.5 mg/kg twice weekly, saline 3
[10] = 12.5 mg/kg twice weekly, saline 15
[11] = 12.5 mg/kg twice weekly, week 3, saline 290
[12] = 12.5 mg/kg twice weekly, saline 58
[13] = 12.5 mg/kg twice weekly, saline 69
[14] = 12.5 mg/kg twice weekly, saline 74
[15] = 12.5 mg/kg twice weekly, saline 135
[16] = 12.5 mg/kg twice weekly, saline 139
[17] = 12.5 mg/kg twice weekly, saline 140

CGGCCCATCTTGGTGCGGAT (e[5mC]*eG*eG*e[5mC]*e[5mC]*d[5mC]*dA*dT*d[5mC]*dT*dT*dG*dG*dT*dG*e[5mC]*eG*eG*eA*eT; antisense) [ISIS 145706]
Spleen weight [1, 7]: 0.7 grams | Fat weight [1, 8]: 1.5 grams | Kidney weight [1, 9]: 3 grams | Liver weight [1, 10]: 15 grams | Body weight [1, 11]: 289 grams | Fat weight ([1]; 25 mg/kg twice weekly): 1.3 grams | Kidney weight ([1]; 25 mg/kg twice weekly): 3 grams | Liver weight ([1]; 25 mg/kg twice weekly): 15 grams | Spleen weight ([1]; 25 mg/kg twice weekly): 1.0 grams | Body weight ([1]; 25 mg/kg twice weekly, week 3): 300 grams | Fat weight ([1]; 50 mg/kg twice weekly): 1.2 grams | Kidney weight ([1]; 50 mg/kg twice weekly): 3 grams | Liver weight ([1]; 50 mg/kg twice weekly): 16 grams | Spleen weight ([1]; 50 mg/kg twice weekly): 0.9 grams | Body weight ([1]; 50 mg/kg twice weekly, week 3): 290 grams | Increases in body weights (in words) [1]: comparable to the increases in body weight observed for saline-treated control animals | % Inhibition, target reduction in liver ([2]; 12.5 mg/kg twice weekly): 12% | % Inhibition, target reduction in liver ([2]; 25 mg/kg twice weekly): 56% | % Inhibition, target reduction in liver ([2]; 50 mg/kg twice weekly): 77% | target mRNA levels in rat liver (in words) [2]: effective in reducing target mRNA levels in rat liver in a dose-dependent manner | plasma cholesterol (CHOL) WK 3 [3, 12]: 51 | plasma triglycerides (TRIG) WK 0 [3, 13]: 54 | plasma cholesterol (CHOL) WK 0 [3, 14]: 69 | plasma GLUCOSE WK 0 [3, 15]: 149 | plasma GLUCOSE WK 3 [3, 16]: 151 | plasma triglycerides (TRIG) WK 3 [3, 17]: 61 | plasma GLUCOSE WK 0 ([3]; 25 mg/kg twice weekly): 149 | plasma GLUCOSE WK 3 ([3]; 25 mg/kg twice weekly): 148 | plasma cholesterol (CHOL) WK 0 ([3]; 25 mg/kg twice weekly): 80 | plasma cholesterol (CHOL) WK 3 ([3]; 25 mg/kg twice weekly): 59 | plasma triglycerides (TRIG) WK 0 ([3]; 25 mg/kg twice weekly): 45 | plasma triglycerides (TRIG) WK 3 ([3]; 25 mg/kg twice weekly): 58 | plasma GLUCOSE WK 0 ([3]; 50 mg/kg twice weekly): 148 | plasma GLUCOSE WK 3 ([3]; 50 mg/kg twice weekly): 151 | plasma cholesterol (CHOL) WK 0 ([3]; 50 mg/kg twice weekly): 79 | plasma cholesterol (CHOL) WK 3 ([3]; 50 mg/kg twice weekly): 57 | plasma triglycerides (TRIG) WK 0 ([3]; 50 mg/kg twice weekly): 66 | plasma triglycerides (TRIG) WK 3 ([3]; 50 mg/kg twice weekly): 52 | plasma triglycerides (in words) [3]: prevented the increases in triglycerides observed in saline-treated animals | % Inhib [4]: 96% | % Inhib of mouse glucose-6-phosphatase translocase mRNA levels [5]: 54%

GTGCTTGGCAATGGTGCTGA (eG*eT*eG*e[5mC]*eT*dT*dG*dG*d[5mC]*dA*dA*dT*dG*dG*dT*eG*e[5mC]*eT*eG*eA; antisense) [ISIS 359543]
Spleen weight [1, 7]: 0.9 grams | Fat weight [1, 8]: 1.4 grams | Kidney weight [1, 9]: 3 grams | Liver weight [1, 10]: 15 grams | Body weight [1, 11]: 285 grams | Fat weight ([1]; 25 mg/kg twice weekly): 1.3 grams | Kidney weight ([1]; 25 mg/kg twice weekly): 3 grams | Liver weight ([1]; 25 mg/kg twice weekly): 16 grams | Spleen weight ([1]; 25 mg/kg twice weekly): 1.1 grams | Body weight ([1]; 25 mg/kg twice weekly, week 3): 295 grams | Fat weight ([1]; 50 mg/kg twice weekly): 1.0 grams | Kidney weight ([1]; 50 mg/kg twice weekly): 3 grams | Liver weight ([1]; 50 mg/kg twice weekly): 13 grams | Spleen weight ([1]; 50 mg/kg twice weekly): 1.4 grams | Body weight ([1]; 50 mg/kg twice weekly, week 3): 277 grams | Increases in body weights (in words) [1]: comparable to the increases in body weight observed for saline-treated control animals | % Inhibition, target reduction in liver ([2]; 12.5 mg/kg twice weekly): 50% | % Inhibition, target reduction in liver ([2]; 25 mg/kg twice weekly): 62% | % Inhibition, target reduction in liver ([2]; 50 mg/kg twice weekly): 77% | target mRNA levels in rat liver (in words) [2]: effective in reducing target mRNA levels in rat liver in a dose-dependent manner | plasma cholesterol (CHOL) WK 3 [3, 12]: 57 | plasma triglycerides (TRIG) WK 0 [3, 13]: 69 | plasma cholesterol (CHOL) WK 0 [3, 14]: 80 | plasma GLUCOSE WK 0 [3, 15]: 138 | plasma GLUCOSE WK 3 [3, 16]: 165 | plasma triglycerides (TRIG) WK 3 [3, 17]: 61 | plasma GLUCOSE WK 0 ([3]; 25 mg/kg twice weekly): 138 | plasma GLUCOSE WK 3 ([3]; 25 mg/kg twice weekly): 154 | plasma cholesterol (CHOL) WK 0 ([3]; 25 mg/kg twice weekly): 82 | plasma cholesterol (CHOL) WK 3 ([3]; 25 mg/kg twice weekly): 57 | plasma triglycerides (TRIG) WK 0 ([3]; 25 mg/kg twice weekly): 62 | plasma triglycerides (TRIG) WK 3 ([3]; 25 mg/kg twice weekly): 37 | plasma GLUCOSE WK 0 ([3]; 50 mg/kg twice weekly): 135 | plasma GLUCOSE WK 3 ([3]; 50 mg/kg twice weekly): 136 | plasma cholesterol (CHOL) WK 0 ([3]; 50 mg/kg twice weekly): 87 | plasma cholesterol (CHOL) WK 3 ([3]; 50 mg/kg twice weekly): 54 | plasma triglycerides (TRIG) WK 0 ([3]; 50 mg/kg twice weekly): 69 | plasma triglycerides (TRIG) WK 3 ([3]; 50 mg/kg twice weekly): 19 | plasma triglycerides (in words) [3]: dose-dependent reductions in plasma triglycerides | % Inhib [4]: 74%

TGACTGCAGAAGTTTCCTGT (eT*eG*eA*e[5mC]*eT*dG*d[5mC]*dA*dG*dA*dA*dG*dT*dT*dT*e[5mC]*e[5mC]*eT*eG*eT; antisense) [ISIS 194838]
% Inhib [6]: 91% | % Inhib [4]: 42%
